Results on 9 compounds are retold here after ChEMBL document CHEMBL1130767, “Discovery of a new cyclooxygenase-2 lead compound through 3-D database searching and combinatorial chemistry” (Bioorg Med Chem Lett, 1998).

The target in experiment [1] is T1, Prostaglandin G/H synthase 2 (Homo sapiens) (UniProt P35354).
T1 sequence (whole entry): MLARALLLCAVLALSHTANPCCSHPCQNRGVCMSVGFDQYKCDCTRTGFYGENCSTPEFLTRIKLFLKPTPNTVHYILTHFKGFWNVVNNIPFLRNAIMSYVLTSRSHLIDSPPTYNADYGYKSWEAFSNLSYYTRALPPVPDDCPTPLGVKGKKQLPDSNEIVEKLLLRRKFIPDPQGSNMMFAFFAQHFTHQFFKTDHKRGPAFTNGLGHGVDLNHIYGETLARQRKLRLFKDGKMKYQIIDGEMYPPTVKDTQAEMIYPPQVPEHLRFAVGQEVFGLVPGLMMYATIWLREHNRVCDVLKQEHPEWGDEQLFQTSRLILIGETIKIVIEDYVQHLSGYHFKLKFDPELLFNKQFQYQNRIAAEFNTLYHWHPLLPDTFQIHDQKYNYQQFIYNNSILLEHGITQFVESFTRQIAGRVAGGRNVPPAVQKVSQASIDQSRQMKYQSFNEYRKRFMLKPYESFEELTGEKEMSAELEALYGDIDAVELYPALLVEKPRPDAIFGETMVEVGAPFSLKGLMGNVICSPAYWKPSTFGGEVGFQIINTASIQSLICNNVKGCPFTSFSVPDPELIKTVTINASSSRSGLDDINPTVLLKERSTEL
The experiment can be described thus: Compound was evaluated for percent inhibition of Prostaglandin G/H synthase 2 at the concentration of 10 uM.

Experiment [2] concerns the target T2, Prostaglandin G/H synthase 1 (Homo sapiens, UniProt P23219). The experiment can be described thus: Compound was evaluated for percent inhibition of Prostaglandin G/H synthase 1 at the concentration of 10 uM.
The target of experiment [3] is T1, Prostaglandin G/H synthase 2 (Homo sapiens). Kind of experiment: Compound was evaluated for percent inhibition of Prostaglandin G/H synthase 2 at the concentration of 0.3 uM.
In experiment [4] the target is T3, Prostaglandin G/H synthase 2 (Homo sapiens, UniProt P35354).
T3 sequence (P35354 whole entry): T1 sequence (whole entry)
The experiment can be described thus: Inhibitory activity was evaluated against human Prostaglandin G/H synthase 2 was determined.

The target of experiment [5] is T2, Prostaglandin G/H synthase 1. Kind of experiment: Inhibitory activity was evaluated against human Prostaglandin G/H synthase 1 was determined.
For experiment [6] the target is unchanged. The experiment can be described thus: Compound was evaluated for the inhibition of Prostaglandin G/H synthase 1 at the concentration of 3 uM.
Experiment [7] has the same target. Kind of experiment: Compound was evaluated for percent inhibition of Prostaglandin G/H synthase 1 at the concentration of 0.3 uM.

pIC50: −log10 of the molar value.

T2 sequence (P23219 whole entry): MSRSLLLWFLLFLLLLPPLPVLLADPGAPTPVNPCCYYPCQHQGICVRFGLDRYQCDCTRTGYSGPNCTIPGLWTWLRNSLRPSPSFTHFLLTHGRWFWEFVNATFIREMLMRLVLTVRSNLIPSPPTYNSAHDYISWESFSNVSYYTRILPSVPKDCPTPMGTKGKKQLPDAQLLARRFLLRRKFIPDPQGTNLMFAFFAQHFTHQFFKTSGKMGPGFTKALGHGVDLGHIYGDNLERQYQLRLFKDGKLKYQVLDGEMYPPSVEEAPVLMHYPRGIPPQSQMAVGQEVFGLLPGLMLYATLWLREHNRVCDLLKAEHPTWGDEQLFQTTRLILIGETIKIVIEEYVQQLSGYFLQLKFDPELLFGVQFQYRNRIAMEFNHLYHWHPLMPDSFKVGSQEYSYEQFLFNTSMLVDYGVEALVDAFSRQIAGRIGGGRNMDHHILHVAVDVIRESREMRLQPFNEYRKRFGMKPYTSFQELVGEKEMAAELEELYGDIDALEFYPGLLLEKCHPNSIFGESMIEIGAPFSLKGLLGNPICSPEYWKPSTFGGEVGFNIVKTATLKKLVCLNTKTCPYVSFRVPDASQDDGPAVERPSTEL

What is called inhibition is the percentage by which the read-out fell short of the control. As for `O=C(O)CCN1c2ccccc2Sc2ccccc21`, the values for the inhibition in experiment [1] and in experiment [2] were 14% and 25%, respectively.

For the compound `CCC(=O)NCCCN1c2ccccc2Sc2ccccc21`, the inhibition in experiment [3] turned out to be 18%.

One may read the pIC50 as the negative decadic logarithm of the IC50, by convention in mol/L. For `CC(S)CN1c2ccccc2Sc2ccccc21` (centres undefined), the values for the pIC50 in experiment [4] and in experiment [5] were 5.40 and 6.30, respectively.

As for `CC(C)(COc1ccc(Br)cc1)C(=O)NCCCN1c2ccccc2Sc2ccccc21`, the pIC50 in experiment [4] was 4.68. Besides, the results for the inhibition in experiment [3], in experiment [6] and in experiment [7] were 34%, 19% and 12%, respectively.

Take `CC(O)CN1c2ccccc2Sc2ccccc21` (centres undefined): the pIC50 was 5.30 in experiment [4] and 6.00 in experiment [5].

Turning to `O=C(COc1ccc(Br)cc1)NCCCN1c2ccccc2Sc2ccccc21`, the inhibition in experiment [3] worked out at 15%.

In the case of `CC(C)(Oc1ccc(Cl)cc1)C(=O)NCCCN1c2ccccc2Sc2ccccc21`, in experiment [4], the pIC50 was 5.89. Moreover, the values for the inhibition in experiment [3], in experiment [6] and in experiment [7] were 44%, 17% and 13%, respectively.

On to `O=C(CCC1CCCCC1)NCCCN1c2ccccc2Sc2ccccc21`, for which the inhibition in experiment [3] came out at 15%.

`OCCN1c2ccccc2Sc2ccccc21`: the inhibition in experiment [1] came to 14%; in experiment [2], 12%.
